According to ChEMBL document CHEMBL1671626, “In vitro profiling of ceftaroline against a collection of recent bacterial clinical isolates from across the United States” (2008):

Assays:
Assay type in all cases: functional
Staphylococcus aureus [1] = assay: Antibacterial activity against methicillin-susceptible Staphylococcus aureus by CLSI M7-A7 broth microdilution method
Staphylococcus aureus [2] = assay: Antibacterial activity against methicillin-susceptible Staphylococcus aureus assessed as susceptible isolates by CLSI M7-A7 broth microdilution method
Staphylococcus aureus [3] = assay: Antibacterial activity against methicillin-susceptible Staphylococcus aureus assessed as resistant isolates by CLSI M7-A7 broth microdilution method
Staphylococcus aureus [4] = assay: Antibacterial activity against methicillin-resistant Staphylococcus aureus by CLSI M7-A7 broth microdilution method
Staphylococcus aureus [5] = assay: Antibacterial activity against methicillin-resistant Staphylococcus aureus assessed as susceptible isolates by CLSI M7-A7 broth microdilution method
Staphylococcus aureus [6] = assay: Antibacterial activity against methicillin-resistant Staphylococcus aureus assessed as resistant isolates by CLSI M7-A7 broth microdilution method
Staphylococcus aureus [7] = assay: Antibacterial activity against coagulase-negative and oxacillin-susceptible Staphylococcus aureus by CLSI M7-A7 broth microdilution method
Staphylococcus aureus [8] = assay: Antibacterial activity against coagulase-negative and oxacillin-susceptible Staphylococcus aureus assessed as susceptible isolates by CLSI M7-A7 broth microdilution method
Staphylococcus aureus [9] = assay: Antibacterial activity against coagulase-negative and oxacillin-susceptible Staphylococcus aureus assessed as resistant isolates by CLSI M7-A7 broth microdilution method
Staphylococcus aureus [10] = assay: Antibacterial activity against coagulase-negative and oxacillin-resistant Staphylococcus aureus by CLSI M7-A7 broth microdilution method
Staphylococcus aureus [11] = assay: Antibacterial activity against coagulase-negative and oxacillin-resistant Staphylococcus aureus assessed as susceptible isolates by CLSI M7-A7 broth microdilution method
Staphylococcus aureus [12] = assay: Antibacterial activity against coagulase-negative and oxacillin-resistant Staphylococcus aureus assessed as resistant isolates by CLSI M7-A7 broth microdilution method
Streptococcus pyogenes [13] = assay: Antibacterial activity against erythromycin-susceptible Streptococcus pyogenes by CLSI M7-A7 broth microdilution method
Streptococcus pyogenes [14] = assay: Antibacterial activity against erythromycin-susceptible Streptococcus pyogenes assessed as susceptible isolates by CLSI M7-A7 broth microdilution method
Streptococcus pyogenes [15] = assay: Antibacterial activity against erythromycin-nonsusceptible Streptococcus pyogenes by CLSI M7-A7 broth microdilution method
Streptococcus pyogenes [16] = assay: Antibacterial activity against erythromycin-nonsusceptible Streptococcus pyogenes assessed as susceptible isolates by CLSI M7-A7 broth microdilution method
Streptococcus agalactiae [17] = assay: Antibacterial activity against erythromycin-susceptible Streptococcus agalactiae assessed as susceptible isolates by CLSI M7-A7 broth microdilution method
Streptococcus agalactiae [18] = assay: Antibacterial activity against erythromycin-susceptible Streptococcus agalactiae by CLSI M7-A7 broth microdilution method
Streptococcus agalactiae [19] = assay: Antibacterial activity against erythromycin-nonsusceptible Streptococcus agalactiae assessed as susceptible isolates by CLSI M7-A7 broth microdilution method
Streptococcus agalactiae [20] = assay: Antibacterial activity against erythromycin-nonsusceptible Streptococcus agalactiae by CLSI M7-A7 broth microdilution method
Streptococcus viridans [21] = assay: Antibacterial activity against penicillin-susceptible Streptococcus viridans by CLSI M7-A7 broth microdilution method
Streptococcus viridans [22] = assay: Antibacterial activity against penicillin-susceptible Streptococcus viridans assessed as susceptible isolates by CLSI M7-A7 broth microdilution method
Streptococcus viridans [23] = assay: Antibacterial activity against penicillin-nonsusceptible Streptococcus viridans by CLSI M7-A7 broth microdilution method
Streptococcus viridans [24] = assay: Antibacterial activity against penicillin-nonsusceptible Streptococcus viridans assessed as susceptible isolates by CLSI M7-A7 broth microdilution method
Streptococcus viridans [25] = assay: Antibacterial activity against penicillin-nonsusceptible Streptococcus viridans assessed as resistant isolates by CLSI M7-A7 broth microdilution method
Enterococcus faecalis [26] = assay: Antibacterial activity against vancomycin-susceptible Enterococcus faecalis by CLSI M7-A7 broth microdilution method
Enterococcus faecalis [27] = assay: Antibacterial activity against vancomycin-susceptible Enterococcus faecalis assessed as susceptible isolates by CLSI M7-A7 broth microdilution method
Enterococcus faecalis [28] = assay: Antibacterial activity against vancomycin-susceptible Enterococcus faecalis assessed as resistant isolates by CLSI M7-A7 broth microdilution method
Enterococcus faecalis [29] = assay: Antibacterial activity against vancomycin-resistant Enterococcus faecalis by CLSI M7-A7 broth microdilution method
Enterococcus faecalis [30] = assay: Antibacterial activity against vancomycin-resistant Enterococcus faecalis assessed as resistant isolates by CLSI M7-A7 broth microdilution method
Enterococcus faecium [31] = assay: Antibacterial activity against vancomycin-resistant Enterococcus faecium by CLSI M7-A7 broth microdilution method
Enterococcus faecium [32] = assay: Antibacterial activity against vancomycin-resistant Enterococcus faecium assessed as susceptible isolates by CLSI M7-A7 broth microdilution method
Enterococcus faecium [33] = assay: Antibacterial activity against vancomycin-resistant Enterococcus faecium assessed as resistant isolates by CLSI M7-A7 broth microdilution method
Moraxella catarrhalis = assay: Antibacterial activity against beta lactamase-positive Moraxella catarrhalis by CLSI M7-A7 broth microdilution method
Pasteurella multocida = assay: Antibacterial activity against Pasteurella multocida by CLSI M7-A7 broth microdilution method
Streptococcus pneumoniae [34] = assay: Antibacterial activity against penicillin-susceptible Streptococcus pneumoniae by CLSI M7-A7 broth microdilution method
Streptococcus pneumoniae [35] = assay: Antibacterial activity against penicillin-susceptible Streptococcus pneumoniae assessed as susceptible isolates by CLSI M7-A7 broth microdilution method
Streptococcus pneumoniae [36] = assay: Antibacterial activity against penicillin-resistant Streptococcus pneumoniae by CLSI M7-A7 broth microdilution method
Streptococcus pneumoniae [37] = assay: Antibacterial activity against penicillin-resistant Streptococcus pneumoniae assessed as susceptible isolates by CLSI M7-A7 broth microdilution method
Enterococcus faecalis [38] = assay: Antibacterial activity against vancomycin-resistant Enterococcus faecalis assessed as susceptible isolates by CLSI M7-A7 broth microdilution method

CC1(C)S[C@@H]2[C@H](NC(=O)Cc3ccccc3)C(=O)N2[C@H]1C(=O)O [PENICILLIN G]
2 µg/mL: MIC90 (Staphylococcus aureus [7]) | MIC50 (Enterococcus faecalis [26]) | MIC50 (Enterococcus faecalis [29])
32.3%: Activity (Staphylococcus aureus [8])
0.5 µg/mL: MIC50 (Staphylococcus aureus [7]) | MIC50 (Streptococcus viridans [23])
100%: Activity (Streptococcus pyogenes [16]) | Activity (Streptococcus agalactiae [17]) | Activity (Streptococcus viridans [22]) | Activity (Enterococcus faecalis [27]) | Activity (Enterococcus faecium [33])
16.7%: Activity (Staphylococcus aureus [2])
0.5%: Activity (Staphylococcus aureus [5])
83.3%: Activity (Staphylococcus aureus [3])
98.9%: Activity (Streptococcus pyogenes [14])
> 16 µg/mL: MIC90 (Staphylococcus aureus [1]) | MIC50 (Staphylococcus aureus [4]) | MIC (Enterococcus faecium [31]) | MIC50 (Enterococcus faecium [31]) | MIC90 (Enterococcus faecium [31])
8 µg/mL: MIC50 (Staphylococcus aureus [10]) | MIC90 (Streptococcus viridans [23])
16 µg/mL: MIC90 (Moraxella catarrhalis)
≤ 0.12 µg/mL: MIC (Streptococcus pyogenes [13]) | MIC50 (Streptococcus pyogenes [13]) | MIC90 (Streptococcus pyogenes [13]) | MIC (Streptococcus pyogenes [15]) | MIC50 (Streptococcus pyogenes [15]) | MIC90 (Streptococcus pyogenes [15]) | MIC (Streptococcus agalactiae [18]) | MIC50 (Streptococcus agalactiae [18]) | MIC90 (Streptococcus agalactiae [18]) | MIC (Streptococcus agalactiae [20]) | MIC50 (Streptococcus agalactiae [20]) | MIC90 (Streptococcus agalactiae [20]) | MIC (Streptococcus viridans [21]) | MIC50 (Streptococcus viridans [21]) | MIC90 (Streptococcus viridans [21]) | MIC50 (Pasteurella multocida)
95.2%: Activity (Streptococcus agalactiae [19])
2.3%: Activity (Staphylococcus aureus [11])
0.25 µg/mL: MIC90 (Pasteurella multocida)
67.7%: Activity (Staphylococcus aureus [9])
4 µg/mL: MIC50 (Staphylococcus aureus [1]) | MIC90 (Enterococcus faecalis [26]) | MIC90 (Enterococcus faecalis [29]) | MIC50 (Moraxella catarrhalis)
28.6%: Activity (Streptococcus viridans [25])
0%: Activity (Streptococcus viridans [24]) | Activity (Enterococcus faecalis [28]) | Activity (Enterococcus faecalis [30]) | Activity (Enterococcus faecium [32])
97.7%: Activity (Staphylococcus aureus [12])
99.5%: Activity (Staphylococcus aureus [6])

CN[C@H](CC(C)C)C(=O)N[C@H]1C(=O)N[C@@H](CC(N)=O)C(=O)N[C@H]2C(=O)N[C@H]3C(=O)N[C@H](C(=O)N[C@H](C(=O)O)c4cc(O)cc(O)c4-c4cc3ccc4O)[C@H](O)c3ccc(c(Cl)c3)Oc3cc2cc(c3O[C@@H]2O[C@H](CO)[C@@H](O)[C@H](O)[C@H]2O[C@H]2C[C@](C)(N)[C@H](O)[C@H](C)O2)Oc2ccc(cc2Cl)[C@H]1O [VANCOMYCIN]
0.25 µg/mL: MIC50 (Streptococcus pneumoniae [34]) | MIC50 (Streptococcus pneumoniae [36]) | MIC (Streptococcus pyogenes [13]) | MIC50 (Streptococcus pyogenes [13]) | MIC (Streptococcus pyogenes [15]) | MIC50 (Streptococcus pyogenes [15])
2 µg/mL: MIC90 (Staphylococcus aureus [7]) | MIC90 (Staphylococcus aureus [10]) | MIC90 (Enterococcus faecalis [26])
92.9%: Activity (Streptococcus viridans [24])
100%: Activity (Streptococcus pneumoniae [35]) | Activity (Streptococcus pneumoniae [37]) | Activity (Streptococcus pyogenes [14]) | Activity (Streptococcus pyogenes [16]) | Activity (Streptococcus agalactiae [17]) | Activity (Streptococcus agalactiae [19]) | Activity (Streptococcus viridans [22]) | Activity (Enterococcus faecalis [27]) | Activity (Enterococcus faecalis [30]) | Activity (Enterococcus faecium [33])
0.3%: Activity (Staphylococcus aureus [6])
1 µg/mL: MIC90 (Staphylococcus aureus [1]) | MIC50 (Staphylococcus aureus [4]) | MIC90 (Staphylococcus aureus [4]) | MIC50 (Staphylococcus aureus [7]) | MIC50 (Staphylococcus aureus [10]) | MIC90 (Streptococcus viridans [23]) | MIC50 (Enterococcus faecalis [26])
> 16 µg/mL: MIC (Enterococcus faecalis [29]) | MIC50 (Enterococcus faecalis [29]) | MIC90 (Enterococcus faecalis [29]) | MIC (Enterococcus faecium [31]) | MIC50 (Enterococcus faecium [31]) | MIC90 (Enterococcus faecium [31])
0%: Activity (Staphylococcus aureus [3]) | Activity (Staphylococcus aureus [9]) | Activity (Staphylococcus aureus [12]) | Activity (Enterococcus faecalis [28]) | Activity (Enterococcus faecalis [38]) | Activity (Enterococcus faecium [32])
0.5 µg/mL: MIC50 (Staphylococcus aureus [1]) | MIC90 (Streptococcus pneumoniae [34]) | MIC90 (Streptococcus pneumoniae [36]) | MIC90 (Streptococcus pyogenes [13]) | MIC90 (Streptococcus pyogenes [15]) | MIC50 (Streptococcus agalactiae [18]) | MIC90 (Streptococcus agalactiae [18]) | MIC50 (Streptococcus agalactiae [20]) | MIC90 (Streptococcus agalactiae [20]) | MIC50 (Streptococcus viridans [21]) | MIC90 (Streptococcus viridans [21]) | MIC (Streptococcus viridans [23]) | MIC50 (Streptococcus viridans [23])
